Data published in patent publication US20120232058A1, “SUBSTITUTED PYRIDINE DERIVATIVES AND THEIR MEDICAL USE” (NEUROSEARCH A/S, priority 2009, published 2012).

How the values were obtained:
human Kv7.2+3 [1] = molecular target: T1, human Kv7.2+3 (Homo sapiens, UniProt O43525+O43526); assay: FLIPR-based thallium influx characterization of Kv7.2+3 modulators; type: cell-based; parameters: expressed in transfected cells; host or cells: HEK293; conditions: for EC50: HEK293 cells over-expressing human Kv7.2+3, Tl+ influx, relative to retigabine control responses; for Efficacy: maximal response relative to the reference (retigabine) response
Description: This experiment determines the ability of a test compound to modulate the activity of Kv7.2+3 channels heterologously expressed in human HEK293 cells. The ability is determined relative to retigabine. The activity is determined using a standard thallium (I) sensitive assay, e.g. using a fluorometric method in a Fluorescent Image Plate Reader (FLIPR) as described below in more detail.
Full concentration/response curves are generated and EC50 values are calculated based on max values. EC50 values (Effective Concentration) represent the concentration of the test substance, at which 50% of the channel activity is obtained when compared to retigabine control responses. Maximal response determined relative to the reference (retigabine) response is calculated.
Human HEK293 cells over-expressing human Kv7.2+3 are grown in culture medium (DMEM supplemented with 10% foetal bovine serum), in polystyrene culture flasks ([…]) in a humidified atmosphere of 5% CO2 in air, at 37° C. Cell confluence should be 80-90% on day of plating. Cells are rinsed with 4 ml of PBS (phosphate buffered saline) and incubated 2 min with 1 ml of Trypsin-EDTA. After addition of 25 ml of culture medium cells are re-suspended by trituration with a 25 ml pipette.
The cells are seeded at a density of ˜3×10^6 cells/ml (25 μl/well) in black-walled, clear bottom, 384-well plates pre-treated with 0.01 g/I poly-D-lysin (20 μl/well for 30 min). Plated cells were allowed to proliferate for 24 h before loading with dye.
BTC-AM ([…], Invitrogen) is added 25.5 μl DMSO. The BTC-AM stock solution (2 mM) is diluted to a final concentration of 2 μM in Cl^− free assay buffer (in mM: 140 Na^+-gluconate, 2.5 K^+-gluconate, 6 Ca2^+-gluconate, 1 Mg^2+ gluconate, 5 glucose, 10 HEPES, pH 7.3) containing 2 μM ouabain, 2 mM amaranth and 1 mM tartrazine. […]
After the loading period, the TI^+-sensitive BTC fluorescence signal is measured over time using a FLIPR.
• Temperature: Room temp. • First addition: 12 μl test or control compound after 15 sec at a rate of 30 μl/sec and starting height of 20 μl • Second addition: 12 μl stimulus buffer (CI^− free assay buffer supplemented with 1 mM TI2SO4, 5 mM K2SO4 as well as the quenchers amaranth (2 mM) and tartrazine (1 mM)) is added after an additional 3 minutes at a rate of 30 μl/sec and starting height of 30 μl • Reading intervals: First sequence—3 sec×5, 2 sec×24 and 5 sec×25 Second sequence—1 sec×5, 2 sec×24 and 5 sec×36 Addition plates (compound plate and stimulus plate) are placed in positions 2 and 3, respectively. […] Fluorescence obtained after stimulation is corrected for the mean basal fluorescence (in Cl^− free assay buffer). […]

human Kv7.2+3 [2] = molecular target: T1, human Kv7.2+3; assay: patch-clamp, HEK293 cell lines stably expressing human Kv7.2+3 channels; type: cell-based; parameters: expressed in transfected cells; conditions: −30 mV, 20 ms, baseline current defined as 100%
Text: The effect obtained by these channel activators is described as a percentage increase in baseline current at a given concentration. The baseline current is defined as 100%, and an increase in current is expressed relative to this, i.e. an increase from 1 nA to 1.2 nA is reported as 120%.

In the case of `Cc1ccoc1C(=O)Nc1c(C)cc(N2CCCOCC2)nc1C(C)C` [Compound 1.1, 3-Methyl-furan-2-carboxylic acid(2-isopropyl-4-methyl-6-[1,4]oxazepan-4-yl-pyridin-3-yl)-amide], the EC50 (human Kv7.2+3 [1]) is reported as 0.034 µM, the Efficacy (human Kv7.2+3 [1]) is reported as 82% and the “IK (%)” value (human Kv7.2+3 [2]; conc. 0.03 μM) is reported as 177 (n = 2) %. For the same molecule, the “IK (%)” value (human Kv7.2+3 [2]; conc. 0.3 μM) was 249%.

`Cc1ccoc1C(=O)Nc1c(C)cc(N2CCCOCC2)nc1C` [Compound 1.2, 3-Methyl-furan-2-carboxylic acid(2,4-dimethyl-6-[1,4]oxazepan-4-yl-pyridin-3-yl)-amide] was tested, and the EC50 (human Kv7.2+3 [1]) was 4.1 µM, the Efficacy (human Kv7.2+3 [1]) was 102% and the “IK (%)” value (human Kv7.2+3 [2]; conc. 0.3 μM) was 180%.
